Experimental data published in patent publication US7902252B2, “Inhibitors of D-amino acid oxidase” (Sepracor, Inc., priority 2007, dated 2011).

What was measured:
Human DAAO = Human DAAO (Homo sapiens, UniProt P14920); test: D-Amino Acid Oxidase enzyme assay (D-serine, horseradish peroxidase/Amplex Red coupled fluorescence); type: biochemical; conditions: D-serine 5 mM, pH 7.4
In short: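 D-serine substrate at 5 mM (Km), 50 mM sodium phosphate pH 7.4; H2O2 output coupled via 4 U/mL horseradish peroxidase and 50 μM Amplex Red to resorufin fluorescence. Reaction started with enzyme; H2O2 control checked coupling interference; IC50 from inhibition curves.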

[1] = tested on: D-serine levels in the cerebellum; test: In vivo elevation of D-serine levels in the cerebellum; design: species or system Mice (C57BL/6); conditions: mice, intraperitoneal;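 note: Cutoffs are cerebellum D-serine in nmol/g wet tissue weight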
Procedure: […] Animals are sacrificed at either 2 or 6 h post compound administration with an N=3 per time point. At sacrifice, trunk blood is collected into tubes containing potassium EDTA, which are then centrifuged to permit isolation of plasma. The cerebellum is dissected from each animal. Plasma and cerebellum samples are stored at −80° C. until samples are analyzed (LC/MS/MS).

Human DAAO, sequence (P14920 whole entry): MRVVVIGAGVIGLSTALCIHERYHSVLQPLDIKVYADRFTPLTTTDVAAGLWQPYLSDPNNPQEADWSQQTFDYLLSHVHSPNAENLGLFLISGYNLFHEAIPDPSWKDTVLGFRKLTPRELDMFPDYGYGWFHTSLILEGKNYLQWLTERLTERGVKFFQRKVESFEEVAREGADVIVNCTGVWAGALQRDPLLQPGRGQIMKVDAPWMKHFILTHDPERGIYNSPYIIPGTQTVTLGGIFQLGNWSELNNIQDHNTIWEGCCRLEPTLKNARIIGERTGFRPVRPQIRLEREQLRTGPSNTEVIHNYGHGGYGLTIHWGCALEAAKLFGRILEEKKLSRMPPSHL

Row | IC50 (Human DAAO) [µM] | SMILES | Cerebellum D-serine at 2 hours ([1]; dose 30 mg/kg) | Cerebellum D-serine at 6 hours ([1]; dose 30 mg/kg) | Cerebellum D-serine at 2 hours ([1]; dose 60 mg/kg) | Cerebellum D-serine at 6 hours ([1]; dose 60 mg/kg) | Cerebellum D-serine at 2 hours ([1]; dose 10 mg/kg) | Cerebellum D-serine at 6 hours ([1]; dose 10 mg/kg)
1 | ≤ 0.1 | O=C(O)c1cc2c([nH]1)CCC2Cc1ccc(F)cc1 (racemic) [Compound 39, 4-(4-fluorobenzyl)-1,4,5,6-tetrahydrocyclopenta[b]pyrrole-2-carboxylic acid] | (+) (2.5-4.9 = (+)) | (+) (2.5-4.9 = (+)) | – | – | – | –
2 | ≤ 0.1 | O=C(O)c1cc2c([nH]1)CCC2Cc1ccc2ccccc2c1 (racemic) [Compound 78, 4-(naphthalen-2-ylmethyl)-1,4,5,6-tetrahydrocyclopenta[b]pyrrole-2-carboxylic acid] | (+) (2.5-4.9 = (+)) | (+) (2.5-4.9 = (+)) | – | – | – | –
3 | ≤ 0.1 | O=C(O)c1cc2c([nH]1)C[C@@H]1C[C@H]21 (racemic) [Compound 138, ±(1aS,5aS)-1a,4,5,5a-tetrahydro-1H-4-aza-cyclopropa[α]pentalene-3-carboxylic acid] | – | – | (++) (>5 = (++)) | (++) (>5 = (++)) | – | –
4 | ≤ 0.1 | CCCC1CCc2[nH]c(C(=O)O)cc21 (single isomer, unassigned) [Compound 8, 4-propyl-1,4,5,6-tetrahydrocyclopenta[b]pyrrole-2-carboxylic acid] | (++) (>5 = (++)) | (+) (2.5-4.9 = (+)) | – | – | – | –
5 | ≤ 0.1 | O=C(O)c1cc2c([nH]1)CCC2Cc1ccc(F)c(F)c1 (single isomer, unassigned) [Compound 44, 4-(3,4-difluorobenzyl)-1,4,5,6-tetrahydrocyclopenta[b]pyrrole-2-carboxylic acid] | (+) (2.5-4.9 = (+)) | (+) (2.5-4.9 = (+)) | – | – | – | –
6 | ≤ 0.1 | O=C(O)c1cc2c([nH]1)CCC2Cc1ccc(F)cc1F (single isomer, unassigned) [Compound 47, 4-(2,4-difluorobenzyl)-1,4,5,6-tetrahydrocyclopenta[b]pyrrole-2-carboxylic acid] | (++) (>5 = (++)) | (+) (2.5-4.9 = (+)) | – | – | – | –
7 | – | O=C(O)c1cc2c([nH]1)CCC2Cc1ccc(F)c(Cl)c1 (single isomer, unassigned) [Compound 50, 4-(3-chloro-4-fluorobenzyl)-1,4,5,6-tetrahydrocyclopenta[b]pyrrole-2-carboxylic acid] | (++) (>5 = (++)) | (+) (2.5-4.9 = (+)) | – | – | – | –
8 | ≤ 0.1 | Cc1cc(F)ccc1CC1CCc2[nH]c(C(=O)O)cc21 (single isomer, unassigned) [Compound 53, 4-(4-fluoro-2-methylbenzyl)-1,4,5,6-tetrahydrocyclopenta[b]pyrrole-2-carboxylic acid] | – | – | – | – | (+) (2.5-4.9 = (+)) | (−) (<2.5 = (−))
9 | ≤ 0.1 | O=C(O)c1cc2c([nH]1)CCC2Cc1ccc(Cl)c(Cl)c1 (single isomer, unassigned) [Compound 59, 4-(3,4-dichlorobenzyl)-1,4,5,6-tetrahydrocyclopenta[b]pyrrole-2-carboxylic acid] | – | – | – | – | (+) (2.5-4.9 = (+)) | (+) (2.5-4.9 = (+))
10 | ≤ 0.1 | O=C(O)c1cc2c([nH]1)CCC2Cc1ccc(Br)cc1 (single isomer, unassigned) [Compound 62, 4-(4-bromobenzyl)-1,4,5,6-tetrahydrocyclopenta[b]pyrrole-2-carboxylic acid] | (+) (2.5-4.9 = (+)) | (++) (>5 = (++)) | – | – | – | –
11 | ≤ 0.1 | O=C(O)c1cc2c([nH]1)CCC2Cc1cccc(Br)c1 (single isomer, unassigned) [Compound 64, 4-(3-bromobenzyl)-1,4,5,6-tetrahydrocyclopenta[b]pyrrole-2-carboxylic acid] | – | – | (−) (<2.5 = (−)) | – | – | –
12 | ≤ 100 | O=C(O)c1cc2c([nH]1)CCC2Cc1cccc(Br)c1 (single isomer, unassigned) [Compound 65, 4-(3-bromobenzyl)-1,4,5,6-tetrahydrocyclopenta[b]pyrrole-2-carboxylic acid] | (++) (>5 = (++)) | (+) (2.5-4.9 = (+)) | – | – | – | –
13 | ≤ 0.1 | COc1cccc(CC2CCc3[nH]c(C(=O)O)cc32)c1 (single isomer, unassigned) [Compound 68, 4-(3-methoxybenzyl)-1,4,5,6-tetrahydrocyclopenta[b]pyrrole-2-carboxylic acid] | (+) (2.5-4.9 = (+)) | (+) (2.5-4.9 = (+)) | – | – | – | –
14 | ≤ 0.1 | O=C(O)c1cc2c([nH]1)CCC2Cc1ccc2ccccc2c1 (single isomer, unassigned) [Compound 80, 4-(naphthalen-2-ylmethyl)-1,4,5,6-tetrahydrocyclopenta[b]pyrrole-2-carboxylic acid] | (+) (2.5-4.9 = (+)) | (+) (2.5-4.9 = (+)) | – | – | – | –
15 | ≤ 0.1 | O=C(O)c1cc2c([nH]1)CCC2Cc1cccc(-c2ccco2)c1 (single isomer, unassigned) [Compound 89, 4-(3-(furan-2-yl)benzyl)-1,4,5,6-tetrahydrocyclopenta[b]pyrrole-2-carboxylic acid] | (−) (<2.5 = (−)) | – | – | – | – | –
16 | ≤ 0.1 | O=C(O)c1cc2c([nH]1)CCC2Cc1cccc(-c2ccc[nH]2)c1 (single isomer, unassigned) [Compound 93, 4-(3-(1H-pyrrol-2-yl)benzyl)-1,4,5,6-tetrahydrocyclopenta[b]pyrrole-2-carboxylic acid] | (+) (2.5-4.9 = (+)) | (+) (2.5-4.9 = (+)) | – | – | – | –
17 | ≤ 0.1 | O=C(O)c1cc2c([nH]1)CCC2c1cccc(F)c1 (single isomer, unassigned) [Compound 96, 4-(3-fluorophenyl)-1,4,5,6-tetrahydrocyclopenta[b]pyrrole-2-carboxylic acid] | (+) (2.5-4.9 = (+)) | (+) (2.5-4.9 = (+)) | – | – | – | –
18 | ≤ 0.1 | O=C(O)c1cc2c([nH]1)CCC2c1cc(F)cc(F)c1 (single isomer, unassigned) [Compound 100, 4-(3,5-difluorophenyl)-1,4,5,6-tetrahydrocyclopenta[b]pyrrole-2-carboxylic acid] | (+) (2.5-4.9 = (+)) | (+) (2.5-4.9 = (+)) | – | – | – | –
19 | ≤ 0.1 | O=C(O)c1cc2c([nH]1)C(Cc1cccc(Cl)c1)CC2 (single isomer, unassigned) [Compound 123, 6-(3-chlorobenzyl)-1,4,5,6-tetrahydrocyclopenta[b]pyrrole-2-carboxylic acid] | (+) (2.5-4.9 = (+)) | (+) (2.5-4.9 = (+)) | – | – | – | –
20 | ≤ 0.1 | COc1cccc(CC2CCc3cc(C(=O)O)[nH]c32)c1 (single isomer, unassigned) [Compound 131, 6-(3-methoxybenzyl)-1,4,5,6-tetrahydrocyclopenta[b]pyrrole-2-carboxylic acid] | (+) (2.5-4.9 = (+)) | (+) (2.5-4.9 = (+)) | – | – | – | –
21 | ≤ 0.1 | O=C(O)c1cc2c([nH]1)CC1CC21 (single isomer, unassigned) [Compound 140, 1a,4,5,5a-tetrahydro-1H-4-aza-cyclopropa[α]pentalene-3-carboxylic acid] | (++) (>5 = (++)) | (++) (>5 = (++)) | – | – | – | –
22 | ≤ 0.1 | O=C(O)c1cc2c([nH]1)CCC2 [Compound 1, 1,4,5,6-tetrahydro-cyclopenta[b]pyrrole-2-carboxylic acid] | (++) (>5 = (++)) | (++) (>5 = (++)) | – | – | – | –
23 | ≤ 0.1 | O=C(O)c1cc2c([nH]1)CCC2Cc1cccc(F)c1 (stereo not drawn) [Compound 54, 4-(3-fluorobenzyl)-1,4,5,6-tetrahydrocyclopenta[b]pyrrole-2-carboxylic acid] | (+) (2.5-4.9 = (+)) | (+) (2.5-4.9 = (+)) | – | – | – | –
24 | ≤ 0.1 | Cc1cccc(CC2CCc3[nH]c(C(=O)O)cc32)c1 (stereo not drawn) [Compound 70, 4-(3-methylbenzyl)-1,4,5,6-tetrahydrocyclopenta[b]pyrrole-2-carboxylic acid] | – | – | (+) (2.5-4.9 = (+)) | (+) (2.5-4.9 = (+)) | – | –
25 | ≤ 0.1 | O=C(O)c1cc2c([nH]1)CCC2c1ccc(F)c(F)c1 (stereo not drawn) [Compound 97, 4-(3,4-difluorophenyl)-1,4,5,6-tetrahydrocyclopenta[b]pyrrole-2-carboxylic acid] | – | – | (+) (2.5-4.9 = (+)) | (+) (2.5-4.9 = (+)) | – | –
26 | ≤ 100 | O=C(O)c1[nH]c2c(c1Br)[C@H]1C[C@H]1C2 [Compound 145, (1aS,5aS)-1a,4,5,5a-tetrahydro-1H-2-bromo-4-aza-cyclopropa[α]pentalene-3-carboxylic acid] | – | – | – | – | – | –
27 | ≤ 1 | O=C(O)c1[nH]c2c(c1Br)C(CCc1ccccc1)CC2 (stereo not drawn) [Compound 147, 3-bromo-4-phenethyl-1,4,5,6-tetrahydrocyclopenta[b]pyrrole-2-carboxylic acid] | – | – | – | – | – | –
28 | ≤ 100 | COC1c2cc(C(=O)O)[nH]c2CC1(F)F (stereo not drawn) [Compound 148, 5,5-difluoro-4-methoxy-1,4,5,6-tetrahydrocyclopenta[b]pyrrole-2-carboxylic acid] | – | – | – | – | – | –
